In general, IC50 refers to the concentration needed to halve the response being measured.

The source of these data is patent US20240343704A1, “HALO-SUBSTITUTED AMINO PYRIDINE COMPOUNDS AS INHIBITORS OF THE HAEMATOPOIETIC PROGENITOR KINASE 1 (HPK1)” (priority 2021, published 2024).

The target of experiment [1] is T1, Recombinant (1-346) HPK1 (h) (Homo sapiens, UniProt Q92918).
T1 construct: Recombinant (1-346) HPK1 (h) is incubated with 8 mM MOPS pH 7.0
T1 sequence (Q92918 1-346): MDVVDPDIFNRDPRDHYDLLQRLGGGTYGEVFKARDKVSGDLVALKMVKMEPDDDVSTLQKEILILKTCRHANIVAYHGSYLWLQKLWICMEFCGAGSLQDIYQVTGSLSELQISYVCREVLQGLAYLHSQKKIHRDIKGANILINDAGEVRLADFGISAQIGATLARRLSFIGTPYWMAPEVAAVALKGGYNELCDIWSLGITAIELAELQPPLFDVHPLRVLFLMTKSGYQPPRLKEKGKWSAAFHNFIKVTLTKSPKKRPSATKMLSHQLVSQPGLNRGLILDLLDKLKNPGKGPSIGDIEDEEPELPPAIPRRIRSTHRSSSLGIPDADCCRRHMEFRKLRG
The experiment in a line: HPK1 Human STE Kinase Enzymatic Radiometric Assay. The class given is biochemical. The conditions noted are these: read-out: HPK1 IC50 nM Range*. As to the method: A stock solution of 10 mM of test compound is prepared in DMSO. The compound plate was prepared by 3-fold and 9-point serial dilutions. […] The reaction is initiated by The addition of the Mg/ATP mix. After incubation for 40 minutes at RT, the reaction is stopped by the addition of phosphoric acid to a concentration of 0.5%.

A further experiment deals with Lck (h) (Homo sapiens, UniProt P06239). Nature of the experiment: Lck Human  Kinase Enzymatic Radiometric Assay. It counts as biochemical. The conditions noted are these: read-out: Lck IC50 nM Range*. In a few lines:
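Substrate 33P-incorporation measured by scintillation counting after spotting on P30 filtermat and phosphoric acid washes. Human Lck reacted 40 min at RT in 50 mM Tris pH 7.5 with 10 mM MgAcetate, [gamma-33P]-ATP, 250 uM Cdc2 peptide, 0.1 mM EGTA and 0.1 mM Na3VO4.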

Molecules are shown by their SMILES. Where only a bound is given, the exact number is not on record here.

Chain of Lck (h) (P06239 whole entry): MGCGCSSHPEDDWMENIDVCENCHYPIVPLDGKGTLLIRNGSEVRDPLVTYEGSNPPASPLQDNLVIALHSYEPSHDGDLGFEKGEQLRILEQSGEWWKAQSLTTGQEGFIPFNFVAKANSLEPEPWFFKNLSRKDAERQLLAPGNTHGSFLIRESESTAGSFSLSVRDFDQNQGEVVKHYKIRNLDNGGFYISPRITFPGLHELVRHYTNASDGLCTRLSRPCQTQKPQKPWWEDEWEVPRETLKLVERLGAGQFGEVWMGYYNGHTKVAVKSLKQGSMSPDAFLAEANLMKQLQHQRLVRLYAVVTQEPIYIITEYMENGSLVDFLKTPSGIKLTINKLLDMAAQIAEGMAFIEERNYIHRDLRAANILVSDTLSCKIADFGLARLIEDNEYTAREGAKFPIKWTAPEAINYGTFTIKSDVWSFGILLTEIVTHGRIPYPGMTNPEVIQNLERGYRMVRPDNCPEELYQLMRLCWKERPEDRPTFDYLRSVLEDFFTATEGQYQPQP

`Nc1nc(F)c(-c2ccc(N3CCN4CCCC4C3)cc2)cc1-c1ccc2c(c1)CCNC2=O` (centres unmarked) [I-280, 6-(2-amino-6-fluoro-5-(4-(hexahydropyrrolo[1,2-a]pyrazin-2(1H)-yl)phenyl)pyridin-3-yl)-3,4-dihydroisoquinolin-1(2H)-one]: the concentration for half-maximal inhibition (IC50) is 0.1 to 10 nM in experiment [1] and above 1000 nM at Lck (h).
For `Nc1nc(F)c(-c2ccc(C3CCN(C4COC4)CC3)cc2)cc1-c1ccc2c(c1)CCNC2=O` [I-152, 6-(2-amino-6-fluoro-5-(4-(1-(oxetan-3-yl)piperidin-4-yl)phenyl)pyridin-3-yl)-3,4-dihydroisoquinolin-1(2H)-one] the same measures were 0.1 to 10 nM and above 1000 nM.
`CC(C)N1CCN(c2ccc(-c3cc(-c4cc5c(cc4F)C(=O)NCC5)c(N)nc3F)cn2)CC1` [I-226, 6-(6-amino-2-fluoro-6′-(4-isopropylpiperazin-1-yl)-[3,3′-bipyridin]-5-yl)-7-fluoro-3,4-dihydroisoquinolin-1(2H)-one]: the IC50 in experiment [1] is 0.1 to 10 nM; at Lck (h) it was above 1000 nM.
As for `Nc1nc(F)c(-c2ccc(N3CCN(CC(F)F)CC3)cc2)cc1-c1cc2c(cc1F)C(=O)NCC2` [I-236, 6-(2-amino-5-(4-(4-(2,2-difluoroethyl)piperazin-1-yl)phenyl)-6-fluoropyridin-3-yl)-7-fluoro-3,4-dihydroisoquinolin-1(2H)-one], the IC50 in experiment [1] is 0.1 to 10 nM; on Lck (h) it was above 1000 nM.
Regarding `Nc1nc(F)c(-c2ccc3c(c2)OCCCO3)cc1-c1ccc2c(c1)CCNC2=O` [I-204, 6-(2-amino-5-(3,4-dihydro-2H-benzo[b][1,4]dioxepin-7-yl)-6-fluoropyridin-3-yl)-3,4-dihydroisoquinolin-1(2H)-one], the IC50 in experiment [1] was 0.1 to 10 nM; on Lck (h) it was above 1000 nM.
For `CN1CCC(c2ccc(-c3cc(-c4ccc5c(c4)CCNC5=O)c(N)nc3Cl)cc2)CC1` [I-231, 6-(2-amino-6-chloro-5-(4-(1-methylpiperidin-4-yl)phenyl)pyridin-3-yl)-3,4-dihydroisoquinolin-1(2H)-one] the same measures were 11 to 100 nM and above 1000 nM.
In the case of `Nc1nc(F)c(-c2ccc(C3CCN(CC(F)(F)F)CC3)cc2)cc1-c1cc2c(cc1F)C(=O)NCC2` [I-248, 6-(2-amino-6-fluoro-5-(4-(1-(2,2,2-trifluoroethyl)piperidin-4-yl)phenyl)pyridin-3-yl)-7-fluoro-3,4-dihydroisoquinolin-1(2H)-one], the IC50 in experiment [1] was 11 to 100 nM; on Lck (h) it was above 1000 nM.
In the case of `COCCN1CCC2(CCc3cc(-c4cc(-c5ccc6c(c5)CCNC6=O)c(N)nc4F)ccc3O2)CC1` [I-216, 6-(2-amino-6-fluoro-5-(1′-(2-methoxyethyl)spiro[chromane-2,4′-piperidin]-6-yl)pyridin-3-yl)-3,4-dihydroisoquinolin-1(2H)-one], the 50% inhibitory concentration (IC50) in experiment [1] is 0.1 to 10 nM; on Lck (h), above 1000 nM.
For `Nc1nc(F)c(-c2ccc([C@@]34C[C@@H]3CN(CC(F)F)C4)cc2)cc1-c1ccc2c(c1)CCNC2=O` [I-72, 6-(2-amino-5-(4-((1R,5S)-3-(2,2-difluoroethyl)-3-azabicyclo[3.1.0]hexan-1-yl)phenyl)-6-fluoropyridin-3-yl)-3,4-dihydroisoquinolin-1(2H)-one] the same measures were 11 to 100 nM and above 1000 nM.
`CC(C)N1CCN(c2ccc(-c3cc(-c4cc5c(cc4F)C(=O)NCC5)c(N)nc3F)nc2)CC1` [I-170, 6-(6′-amino-2′-fluoro-5-(4-isopropylpiperazin-1-yl)-[2,3′-bipyridin]-5′-yl)-7-fluoro-3,4-dihydroisoquinolin-1(2H)-one]: the IC50 in experiment [1] was 0.1 to 10 nM; on Lck (h), above 1000 nM.
For `CC(C)N1CCN(c2ccc(-c3cc(-c4cc5cc[nH]c(=O)c5cc4F)c(N)nc3F)cc2)CC1` [I-373, 6-(2-amino-6-fluoro-5-(4-(4-isopropylpiperazin-1-yl)phenyl)pyridin-3-yl)-7-fluoroisoquinolin-1(2H)-one], the 50% inhibitory concentration (IC50) was in the range of 0.1 to 10 nM in experiment [1] and 11 to 100 nM on Lck (h).
With `CC(=O)N1CCC(Oc2ccc(-c3cc(-c4ccc5c(c4)CCNC5=O)c(N)nc3F)cc2C#N)CC1` [I-194, 2-((1-acetylpiperidin-4-yl)oxy)-5-(6-amino-2-fluoro-5-(1-oxo-1,2,3,4-tetrahydroisoquinolin-6-yl)pyridin-3-yl)benzonitrile], the IC50 in experiment [1] was 0.1 to 10 nM; at Lck (h) it was above 1000 nM.
The like results for `Nc1nc(Cl)c(-c2ccc(N3CCN(CC(F)F)CC3)cc2)cc1-c1ccc2c(c1)CCNC2=O` [I-168, 6-(2-amino-6-chloro-5-(4-(4-(2,2-difluoroethyl)piperazin-1-yl)phenyl)pyridin-3-yl)-3,4-dihydroisoquinolin-1(2H)-one] were, in that order, 11 to 100 nM and above 1000 nM.
The like results for `CN1CCN(C(=O)c2ccc(-c3cc(-c4ccc5c(c4)CCNC5=O)c(N)nc3F)cc2)CC1` [I-259, 6-(2-amino-6-fluoro-5-(4-(4-methylpiperazine-1-carbonyl)phenyl)pyridin-3-yl)-3,4-dihydroisoquinolin-1(2H)-one] were, in that order, 11 to 100 nM and above 1000 nM.
In the case of `CN1CCC(Oc2ccc(-c3cc(-c4ccc5c(c4)CCNC5=O)c(N)nc3F)cc2)CC1` [I-44, 6-(2-amino-6-fluoro-5-(4-((1-methylpiperidin-4-yl)oxy)phenyl)pyridin-3-yl)-3,4-dihydroisoquinolin-1(2H)-one], the figures for the IC50 (in experiment [1]; on Lck (h)) were 0.1 to 10 nM and above 1000 nM, respectively.
The like results for `CC(C)[C@@H]1CN(c2ccc(-c3cnc(N)c(-c4ccc5c(c4)CCNC5=O)c3F)cc2)CCO1` [I-4, (R)-6-(2-amino-4-fluoro-5-(4-(2-isopropylmorpholino)phenyl)pyridin-3-yl)-3,4-dihydroisoquinolin-1(2H)-one] were, in that order, 11 to 100 nM and above 1000 nM.
The like results for `Nc1nc(F)c(-c2ccc(N3CCOCC3)cc2)cc1-c1cc2c(cc1F)C(=O)NCC2` [I-19, 6-(2-amino-6-fluoro-5-(4-morpholinophenyl)pyridin-3-yl)-7-fluoro-3,4-dihydroisoquinolin-1(2H)-one] were, in that order, 0.1 to 10 nM and above 1000 nM.
For `Cc1[nH]c(=O)c2c(F)cc(-c3cc(-c4ccc(N5CCN(C(C)C)CC5)cc4)c(F)nc3N)cc2c1F` [I-481, 6-(2-amino-6-fluoro-5-(4-(4-isopropylpiperazin-1-yl)phenyl)pyridin-3-yl)-4,8-difluoro-3-methylisoquinolin-1(2H)-one] the same measures were 0.1 to 10 nM and above 1000 nM.
Regarding `CC(C)C(=O)N1C[C@H]2C[C@@]2(c2ccc(-c3cc(-c4ccc5c(c4)CCNC5=O)c(N)nc3F)cc2)C1` [I-143, 6-(2-amino-6-fluoro-5-(4-((1R,5S)-3-isobutyryl-3-azabicyclo[3.1.0]hexan-1-yl)phenyl)pyridin-3-yl)-3,4-dihydroisoquinolin-1(2H)-one], the results for the IC50 (in experiment [1]; at Lck (h)) were 0.1 to 10 nM and above 1000 nM, respectively.
On to `Nc1nc(F)c(-c2ccc(C3CCN(CCO)CC3)cc2)cc1-c1ccc2c(c1)CCNC2=O` [I-119, 6-(2-amino-6-fluoro-5-(4-(1-(2-hydroxyethyl)piperidin-4-yl)phenyl)pyridin-3-yl)-3,4-dihydroisoquinolin-1(2H)-one], for which the concentration for half-maximal inhibition (IC50) in experiment [1] was 0.1 to 10 nM; at Lck (h), above 1000 nM.
For `COc1cc(OC2CCN(C(C)=O)CC2)ccc1-c1cc(-c2ccc3c(c2)CCNC3=O)c(N)nc1F` [I-304, 6-(5-(4-((1-acetylpiperidin-4-yl)oxy)-2-methoxyphenyl)-2-amino-6-fluoropyridin-3-yl)-3,4-dihydroisoquinolin-1(2H)-one] the same measures were 0.1 to 10 nM and above 1000 nM.
For `CN1CCN(c2ccc(-c3cc(-c4cc5c(cc4F)C(=O)NCC5)c(N)nc3F)cc2F)CC1` [I-247, 6-(2-amino-6-fluoro-5-(3-fluoro-4-(4-methylpiperazin-1-yl)phenyl)pyridin-3-yl)-7-fluoro-3,4-dihydroisoquinolin-1(2H)-one] the same measures were 0.1 to 10 nM and above 1000 nM.
Take `Nc1nc(F)c(-c2cc(F)c(OC3CCNCC3)cc2F)cc1-c1ccc2c(c1)CCNC2=O` [I-149, 6-(2-amino-5-(2,5-difluoro-4-(piperidin-4-yloxy)phenyl)-6-fluoropyridin-3-yl)-3,4-dihydroisoquinolin-1(2H)-one]: the concentration for half-maximal inhibition (IC50) in experiment [1] is 11 to 100 nM; at Lck (h), above 1000 nM.
As to `C[C@@H]1CN(c2ccc(-c3cc(-c4ccc5c(c4)CCNC5=O)c(N)nc3F)cc2)C[C@H](C)N1C` [I-96, 6-(2-amino-6-fluoro-5-(4-((3R,5S)-3,4,5-trimethylpiperazin-1-yl)phenyl)pyridin-3-yl)-3,4-dihydroisoquinolin-1(2H)-one], the half-maximal inhibitory concentration (IC50) in experiment [1] is 0.1 to 10 nM; at Lck (h) it was above 1000 nM.
The like results for `Cc1cc(-c2cc(-c3ccc4c(c3)CCNC4=O)c(N)nc2F)cc2c1CCN(CCCC(F)F)C2` [I-446, 6-(2-amino-5-(2-(4,4-difluorobutyl)-5-methyl-1,2,3,4-tetrahydroisoquinolin-7-yl)-6-fluoropyridin-3-yl)-3,4-dihydroisoquinolin-1(2H)-one] were, in that order, 0.1 to 10 nM and above 1000 nM.
